Nine compounds from patent US20060211698A1, “Bicyclic heteroaryl derivatives for treating viruses” (Genelabs, Inc., priority 2005, published 2006) can be followed below.

Molecules are shown by their SMILES.

The test concerns the target T1, HCV-NS5b (Hepatitis C virus genotype 1b, UniProt Q9WMX2).
T1 construct: The cloned fragment was missing the C terminus 21 amino acid residues; (His)6 (C); made in house; host or cells: XL-1 cells (E. coli)
The experiment in a line: HCV-NS5b Enzyme Assay. It is filed as biochemical. The following applies: 1 μM test compound; incorporation of [3H]-UTP, 37° C., 2 hours. A digest of the protocol: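 The NS5B construct lacks its C-terminal 21 residues, carries a C-terminal His6 tag and was expressed in E. coli. [^3H]-UTP incorporation on a biotinylated HCV heteropolymeric template (10 ng/μL) with 10 μM each NTP, pH 7.5, 5 mM MgCl2 and 5% DMSO ran 2 h at 37° C and was read by SPA scintillation. IC50s came from 10-point 2-fold series starting at 50 or 2 μM.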
By inhibition is commonly meant the relative decrease from the control value, in per cent. In the case of `O=C(O)c1ccc2c(C3CCCCC3)c(-c3ccc(-c4ccc5ccccc5n4)cc3)n(CC(=O)N3CCOCC3)c2c1` [Compound 326, 3-Cyclohexyl-1-(2-morpholin-4-yl-2-oxo-ethyl)-2-(4-quinolin-2-yl-phenyl)-1H-indole-6-carboxylic acid], the inhibition at 1 µM turned out to be 99.8%.

In the case of `O=C(O)c1ccc2c(C3CCCCC3)c(-c3ccc4ncc(-c5ccccc5)cc4c3)n(CC(=O)N3CCOCC3)c2c1` [Compound 327, 3-Cyclohexyl-1-(2-morpholin-4-yl-2-oxo-ethyl)-2-(3-phenyl-quinolin-6-yl)-1H-indole-6-carboxylic acid], the inhibition at 1 µM is 96.3%. Regarding `O=C(O)c1ccc2c(C3CCCCC3)c(-c3ccc4cc(-c5ccccc5)ccc4c3)n(CC(=O)N3CCOCC3)c2c1` [Compound 328, 3-Cyclohexyl-1-(2-morpholin-4-yl-2-oxo-ethyl)-2-(6-phenyl-naphthalen-2-yl)-1H-indole-6-carboxylic acid], the inhibition at 1 µM is 101%. Then `O=C(O)c1ccc2c(C3CCCCC3)c(-c3ccc4ncc(-c5ccccc5)nc4c3)n(CC(=O)N3CCOCC3)c2c1` [Compound 329, 3-Cyclohexyl-1-(2-morpholin-4-yl-2-oxo-ethyl)-2-(3-phenyl-quinoxalin-6-yl)-1H-indole-6-carboxylic acid], with 99.8%; and `O=C(O)c1ccc2c(C3CCCCC3)c(-c3ccc4nc(-c5ccccc5)cnc4c3)n(CC(=O)N3CCOCC3)c2c1` [Compound 330, 3-Cyclohexyl-1-(2-morpholin-4-yl-2-oxo-ethyl)-2-(2-phenyl-quinoxalin-6-yl)-1H-indole-6-carboxylic acid], with 96.8%; and `O=C(O)c1ccc2c(C3CCCCC3)c(-c3ccc4nc(-c5cncs5)ccc4c3)n(CC(=O)N3CCOCC3)c2c1` [Compound 331, 3-Cyclohexyl-1-(2-morpholin-4-yl-2-oxo-ethyl)-2-(2-thiazol-5-yl-quinolin-6-yl)-1H-indole-6-carboxylic acid], with 97%. Then `O=C(O)c1ccc2c(C3CCCCC3)c(-c3ccc(-c4ccccc4)cc3)n(CC(=O)N3CCOCC3)c2c1` [Compound 332, 2-Biphenyl-4-yl-3-cyclohexyl-1-(2-morpholin-4-yl-2-oxo-ethyl)-1H-indole-6-carboxylic acid], with 100%; and `Cc1nc(C)c(-c2ccc3cc(-c4[nH]c5cc(C(=O)O)ccc5c4C4CCCCC4)ccc3n2)s1` [Compound 333, 3-Cyclohexyl-2-[2-(2,4-dimethyl-thiazol-5-yl)-quinolin-6-yl]-1H-indole-6-carboxylic acid], with 95.1%.

As for `Cc1nc(C)c(-c2ccc3cc(-c4[nH]c5c(C)c(C(=O)O)ccc5c4C4CCCCC4)ccc3n2)s1` [Compound 334, 3-Cyclohexyl-2-[2-(2,4-dimethyl-thiazol-5-yl)-quinolin-6-yl]-7-methyl-1H-indole-6-carboxylic acid], the inhibition at 1 µM stood at 86.9%.
